# Results: patent publication US11925655B2, “FAP-activated therapeutic agents, and uses related thereto” (Bach Biosciences, LLC, priority 2014, dated 2024)
# Where two headings read alike, the source gives them in different places.
# How the values were obtained:
# [1] = test system: CT26 cells; assay: CellTiter-Blue cell viability assay with CT26 cells; assay type: cell-based; conditions: Mus musculus
# [2] = target: dipeptidyl peptidase IV (DPP IV) (Homo sapiens, UniProt P27487); assay: Specificity of activation: digest with DPP IV; assay type: biochemical; conditions: 100 μM prodrug, 24 hours at 37° C.
# Procedure: (§1) Total doxorubicin was measured for each assay.
# [3] = target: T1, FAP (Homo sapiens, UniProt Q12884); assay: Specificity of activation: digest with FAP; assay type: biochemical; conditions: 100 μM prodrug, 24 hours at 37° C.
# T1 sequence (Q12884 1-760): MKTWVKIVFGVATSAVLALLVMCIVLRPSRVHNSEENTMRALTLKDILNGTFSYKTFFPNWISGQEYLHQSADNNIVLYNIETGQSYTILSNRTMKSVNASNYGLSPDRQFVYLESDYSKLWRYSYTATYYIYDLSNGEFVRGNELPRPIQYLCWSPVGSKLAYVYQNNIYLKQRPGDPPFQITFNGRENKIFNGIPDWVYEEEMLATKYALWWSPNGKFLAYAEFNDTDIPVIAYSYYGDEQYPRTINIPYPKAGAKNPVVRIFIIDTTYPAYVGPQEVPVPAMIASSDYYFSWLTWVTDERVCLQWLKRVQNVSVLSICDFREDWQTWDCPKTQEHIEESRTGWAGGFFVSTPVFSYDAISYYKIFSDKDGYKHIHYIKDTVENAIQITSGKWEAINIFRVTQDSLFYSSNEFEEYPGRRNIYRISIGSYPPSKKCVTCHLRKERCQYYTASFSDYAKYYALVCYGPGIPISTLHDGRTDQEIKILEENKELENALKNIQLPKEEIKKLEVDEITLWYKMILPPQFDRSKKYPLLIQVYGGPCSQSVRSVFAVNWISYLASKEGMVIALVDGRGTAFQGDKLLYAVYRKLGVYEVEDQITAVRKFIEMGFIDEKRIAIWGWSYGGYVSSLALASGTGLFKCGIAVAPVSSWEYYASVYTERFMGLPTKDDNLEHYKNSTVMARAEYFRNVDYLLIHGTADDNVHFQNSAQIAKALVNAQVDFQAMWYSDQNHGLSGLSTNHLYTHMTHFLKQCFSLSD
# Procedure: as §1
# [4] = target: T2, PREP (Homo sapiens, UniProt P48147); assay: Specificity of activation: digest with PREP; assay type: biochemical; conditions: 100 μM prodrug, 24 hours at 37° C.
# T2 sequence (P48147 1-710): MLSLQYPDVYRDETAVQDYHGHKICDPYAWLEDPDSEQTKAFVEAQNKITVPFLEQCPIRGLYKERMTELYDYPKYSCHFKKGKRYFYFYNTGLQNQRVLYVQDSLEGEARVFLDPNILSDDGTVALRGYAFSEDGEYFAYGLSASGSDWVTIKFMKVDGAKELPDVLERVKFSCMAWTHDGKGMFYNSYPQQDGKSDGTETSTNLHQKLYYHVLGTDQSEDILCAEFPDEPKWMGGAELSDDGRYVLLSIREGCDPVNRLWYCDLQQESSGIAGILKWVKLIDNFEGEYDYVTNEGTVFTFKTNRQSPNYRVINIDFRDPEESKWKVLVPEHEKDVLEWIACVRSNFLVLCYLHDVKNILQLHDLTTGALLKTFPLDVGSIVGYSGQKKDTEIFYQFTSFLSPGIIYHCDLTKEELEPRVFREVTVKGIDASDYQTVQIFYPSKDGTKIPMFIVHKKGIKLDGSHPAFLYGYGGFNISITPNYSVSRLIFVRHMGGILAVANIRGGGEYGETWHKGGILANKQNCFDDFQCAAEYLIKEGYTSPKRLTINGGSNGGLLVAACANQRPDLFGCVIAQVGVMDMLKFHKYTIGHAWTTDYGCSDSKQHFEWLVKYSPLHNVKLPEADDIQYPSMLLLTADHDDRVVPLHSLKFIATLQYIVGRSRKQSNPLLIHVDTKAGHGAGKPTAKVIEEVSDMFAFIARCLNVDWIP
# Procedure: as §1
# [5] = test system: HEK-mFAP cells; assay: CellTiter-Blue cell viability assay with HEK-mFAP cells; assay type: cell-based, human; conditions: Homo sapiens, 5107DOX assay, 72 hour incubation
# [6] = Stability in mouse muscle lysate; conditions: 100 μM prodrug, 37° C., 12 h
# [7] = test system: COc1cccc2c1C(=O)c1c(O)c3c(c(O)c1C2=O)C[C@@](O)(C(=O)CO)C[C@@H]3OC1CC(NC(=O)[C@@H]2CC(F)(F)CN2C(=O)CNC(=O)c2ccnc3ccccc23)C(O)C(C)O1; assay: FAP digest of 5057DOX (kinetics); assay type: biochemical
# [8] = test system: COc1cccc2c1C(=O)c1c(O)c3c(c(O)c1C2=O)C[C@@](O)(C(=O)CO)C[C@@H]3OC1CC(NC(=O)[C@@H]2CCCN2C(=O)[C@@H](C)NC(=O)c2ccncc2)C(O)C(C)O1; assay type: biochemical; conditions: other: 1.34×10^−8 M FAP, 37° C., pH 7.5
# Procedure: Michaelis-Menten enzyme kinetics for FAP were measured using a SpectraMax M2e microplate reader (Molecular Devices, Sunnyvale, CA, USA). The assays were performed in FAP buffer (50 mM Tris, 140 mM NaCl, pH 7.5) at 25° C., and the fluorescence continuously monitored at excitation and emission wavelengths of 380 and 460 nm, respectively. Kinetic constants (kcat and Km) were determined using GP-AMC (Bachem, Torrance, CA, USA), Ac-(D)-AP-AFC (MP Biomedicals, Solon, OH, USA) and test article concentrations equivalent to 0.1-5 times their respective Km values, and with 5-10 nM enzyme. All assays were performed in triplicate, and the results were calculated with a nonlinear regression analysis, relying on a Michaelis-Menten curve fit using GraphPad software.
# 3099DOX at various concentrations ranging from 8.5×10^−6 M to 6.9×10^−4 M was incubated with 1.34×10^−8 M FAP or PREP at 37° C., and released doxorubicin measured.
# [9] = other: 5057DOX assay 6, [FAP] 4.00 × 10^−9M
# [10] = other: 5057DOX assay 7, [FAP] 1 nM
# Sequence of dipeptidyl peptidase IV (DPP IV) (P27487 whole entry, species assumed): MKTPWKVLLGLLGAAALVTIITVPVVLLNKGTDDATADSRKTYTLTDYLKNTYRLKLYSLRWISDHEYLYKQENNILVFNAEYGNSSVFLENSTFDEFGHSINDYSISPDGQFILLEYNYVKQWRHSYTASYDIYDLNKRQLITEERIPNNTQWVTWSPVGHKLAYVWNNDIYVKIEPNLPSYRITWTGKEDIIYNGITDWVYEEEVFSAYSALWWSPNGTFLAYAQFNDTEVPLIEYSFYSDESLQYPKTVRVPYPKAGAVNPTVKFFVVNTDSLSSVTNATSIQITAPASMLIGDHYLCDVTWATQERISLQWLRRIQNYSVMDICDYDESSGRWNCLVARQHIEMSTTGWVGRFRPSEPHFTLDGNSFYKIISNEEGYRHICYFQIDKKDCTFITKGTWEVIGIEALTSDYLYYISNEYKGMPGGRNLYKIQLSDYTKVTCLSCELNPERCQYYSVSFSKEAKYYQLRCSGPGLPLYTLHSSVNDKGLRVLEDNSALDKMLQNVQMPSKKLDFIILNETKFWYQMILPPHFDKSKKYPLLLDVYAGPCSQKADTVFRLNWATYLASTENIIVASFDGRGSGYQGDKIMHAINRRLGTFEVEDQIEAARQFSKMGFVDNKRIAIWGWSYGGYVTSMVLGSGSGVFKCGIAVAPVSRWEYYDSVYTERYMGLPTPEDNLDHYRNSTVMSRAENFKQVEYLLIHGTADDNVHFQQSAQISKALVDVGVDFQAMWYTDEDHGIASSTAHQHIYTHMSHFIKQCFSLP
compound,measurement,setting,value
COc1cccc2c1C(=O)c1c(O)c3c(c(O)c1C2=O)C[C@@](O)(C(=O)CO)C[C@@H]3OC1CC(NC(=O)[C@@H]2CCCN2C(=O)[C@@H](C)NC(=O)[C@H](CO)NC(=O)CCC(=O)O)C(O)C(C)O1 (stereo partly shown) [Compound 3996DOX],EC50,[1]; read-out: EC50 (prodrug + 50 nM FAP),26 µM
same,EC50,[1]; read-out: EC50 (prodrug + 50 nM PREP),210 µM
same,EC50,[1]; read-out: EC50 (prodrug alone),190 µM
same,doxorubicin released by DPP IV,[2],essentially none
same,"doxorubicin released by FAP, relative amount",[3]; as much doxorubicin as from the other prodrugs,about 15%
same,doxorubicin released by PREP,[4],essentially none
COc1cccc2c1C(=O)c1c(O)c3c(c(O)c1C2=O)C[C@@](O)(C(=O)CO)C[C@@H]3OC1CC(NC(=O)[C@@H]2CC(F)(F)CN2C(=O)[C@@H](C)NC(=O)c2ccnc3ccccc23)C(O)C(C)O1 (stereo partly shown) [Compound 5107DOX],EC50,[5]; read-out: EC50 (prodrug + 100 uM 5057-2),> 100 µM
same,EC50,[5]; read-out: EC50 (prodrug alone),0.94 µM
"COc1cccc2c1C(=O)c1c(O)c3c(c(O)c1C2=O)C[C@@](O)(C(=O)CO)C[C@@H]3O[C@H]1C[C@H](NC(=O)[C@@H]2CCCN2C(=O)CNC(=O)OCc2ccccc2)[C@H](O)[C@H](C)O1 [z-GP-DOX, reference compound]",doxorubicin released in mouse muscle lysate,[6],a large amount of doxorubicin
same,doxorubicin released by DPP IV,[2],essentially none
same,doxorubicin released by FAP,[3],A similar amount of doxorubicin was released
same,doxorubicin released by PREP,[4],A similar amount of doxorubicin was released
FAP (Homo sapiens),Km,[7]; [9],Km 1.11 × 10^−5M M
same,Vmax,[7]; [9],Vmax 5.19 × 10^−9M/sec M/sec
same,kcat/Km,[7]; [9],kcat/Km 1.17 × 10^5M^−1sec^−1 M^−1sec^−1
same,Km,[7]; [10],Km 4.85 × 10^−6M M
same,kcat,[7]; [10],Kcat 0.98 sec^−1 sec^−1
same,kcat/Km,[7]; [10],Kcat/Km 2.00 × 10^5M^−1 sec^−1 M^−1 sec^−1
same,Km,[8],11.2 µM
same,Vmax,[8],5.877e-09 M/s
same,kcat,[8],0.44 s⁻¹
same,kcat/Km,[8],39171 M⁻¹ s⁻¹
